The record followed here is patent US8598202B2, “Aryl-hydroxyethylamino-pyrimidines and triazines as modulators of fatty acid amide hydrolase” (Janssen Pharmaceutica NV, priority 2008, dated 2013).

Molecules are shown by their SMILES. Structures can show the parent of a compound that is named as a salt. Where two headings read alike, the source gives them in different places. Some results are limits rather than exact numbers.

One assay addresses T1, FAAH (Homo sapiens, UniProt O00519).
T1 sequence (O00519 1-579): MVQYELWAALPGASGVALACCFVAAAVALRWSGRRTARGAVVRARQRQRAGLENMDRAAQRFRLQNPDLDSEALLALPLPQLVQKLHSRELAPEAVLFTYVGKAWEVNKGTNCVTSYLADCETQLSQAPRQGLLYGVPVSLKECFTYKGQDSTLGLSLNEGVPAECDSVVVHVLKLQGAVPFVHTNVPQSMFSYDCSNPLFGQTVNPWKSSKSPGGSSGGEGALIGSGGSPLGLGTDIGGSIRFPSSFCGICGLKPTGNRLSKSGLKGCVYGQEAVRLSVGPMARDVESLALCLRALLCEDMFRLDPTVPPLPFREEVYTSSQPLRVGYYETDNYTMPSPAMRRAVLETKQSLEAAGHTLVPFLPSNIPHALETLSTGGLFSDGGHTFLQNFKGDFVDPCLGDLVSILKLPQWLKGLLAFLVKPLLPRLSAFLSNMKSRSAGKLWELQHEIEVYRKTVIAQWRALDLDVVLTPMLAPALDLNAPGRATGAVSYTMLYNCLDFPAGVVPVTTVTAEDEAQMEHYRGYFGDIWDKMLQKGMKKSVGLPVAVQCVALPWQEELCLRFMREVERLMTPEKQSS
In words: Assay Method 1: FAAH assay, 3H-anandamide hydrolysis in homogenate of T84 cells or SK-N-MC cells transfected with human FAAH.

In a further assay the target is T2, Rat FAAH-1 (Rattus norvegicus, UniProt P97612).
T2 sequence (P97612 1-579): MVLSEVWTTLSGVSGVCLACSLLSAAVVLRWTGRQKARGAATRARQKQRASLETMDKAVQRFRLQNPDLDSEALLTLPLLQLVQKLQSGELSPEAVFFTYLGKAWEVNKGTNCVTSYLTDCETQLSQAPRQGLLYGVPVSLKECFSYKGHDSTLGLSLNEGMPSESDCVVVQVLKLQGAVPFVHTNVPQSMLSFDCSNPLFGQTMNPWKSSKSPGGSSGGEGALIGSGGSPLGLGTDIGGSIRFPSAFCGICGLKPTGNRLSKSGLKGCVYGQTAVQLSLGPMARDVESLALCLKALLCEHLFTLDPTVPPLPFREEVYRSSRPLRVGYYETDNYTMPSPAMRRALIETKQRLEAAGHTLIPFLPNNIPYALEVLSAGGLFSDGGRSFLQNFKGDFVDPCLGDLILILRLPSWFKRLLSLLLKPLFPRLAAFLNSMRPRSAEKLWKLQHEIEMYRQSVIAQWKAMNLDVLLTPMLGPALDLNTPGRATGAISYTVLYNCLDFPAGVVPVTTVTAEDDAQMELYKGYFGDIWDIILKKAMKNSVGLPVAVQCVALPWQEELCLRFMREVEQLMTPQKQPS
Kind of assay: Assay Method 2: rat FAAH-1 assay, 3H-anandamide hydrolysis in homogenate of SK-N-MC cells transfected with rat FAAH.

Setting [1] is: read-out: Assay 1 IC50, Table 2, Comparative Examples, human FAAH.
Where [2] appears, read: read-out: Assay 2 IC50, Table 2, Comparative Examples, rat FAAH-1.

As usually defined, the IC50 is the concentration at which inhibition is half-maximal. Consider `OC(CNc1cc(-c2ccc(C(F)(F)F)c(Cl)c2)ncn1)c1ccc(N2CCCC2)cc1` (stereo not shown) [Example 208, 2-({6-[3-Chloro-4-(trifluoromethyl)phenyl]pyrimidin-4-yl}amino)-1-(4-pyrrolidin-1-ylphenyl)ethanol], for which the IC50 against FAAH was 28 nM; on Rat FAAH-1, 500 nM.
Taken in the same sequence, the figures for `Cc1c(NC[C@H](O)c2ccccc2)ncnc1-c1ccc(C(F)(F)F)c(Cl)c1` [Example 47, (1R)-2-({6-[3-Chloro-4-(trifluoromethyl)phenyl]-5-methylpyrimidin-4-yl}amino)-1-phenylethanol trifluoroacetic acid salt] were 26 nM and 510 nM.
Regarding `O=[N+]([O-])c1cccc(-c2cc(NCC(O)c3ccccc3)ncn2)c1` (stereo not shown) [Example 234, 2-[6-(3-Nitro-phenyl)-pyrimidin-4-ylamino]-1-phenyl-ethanol], the IC50 against FAAH and against Rat FAAH-1 was over 10000 nM in each case.
Turning to `OC(CNc1cc(-c2ccc(C(F)(F)F)c(Cl)c2)ncn1)c1cccc(C(F)(F)F)c1` (stereo not shown) [Example 135, 2-({6-[3-Chloro-4-(trifluoromethyl)phenyl]pyrimidin-4-yl}amino)-1-[3-(trifluoromethyl)phenyl]ethanol trifluoroacetic acid salt], the IC50 on FAAH is 100 nM; against Rat FAAH-1, 16 nM.
Consider `O[C@@H](CNc1cc(-c2ccc(OC(F)(F)F)c(Cl)c2)ncn1)c1ccccc1` [Example 181, (1R)-2-({6-[3-Chloro-4-(trifluoromethoxy)phenyl]pyrimidin-4-yl}amino)-1-phenylethanol], for which the values for the IC50 against FAAH and at Rat FAAH-1 were 7 nM and 20 nM, respectively.
Regarding `OC(CNc1cc(-c2ccc(C(F)(F)F)c(Cl)c2)ncn1)c1ccccc1OC(F)F` (stereo not shown) [Example 189, 2-({6-[3-Chloro-4-(trifluoromethyl)phenyl]pyrimidin-4-yl}amino)-1-[2-(difluoromethoxy)phenyl]ethanol], the IC50 against FAAH amounted to 170 nM; against Rat FAAH-1 it was 150 nM.
Take `OC(CNc1cc(-c2cccs2)ncn1)c1ccccc1` (stereo not shown) [CE5, 1-Phenyl-2-(6-thiophen-2-yl-pyrimidin-4-ylamino)-ethanol, reference compound]: the IC50 at FAAH (setting [1]) and on Rat FAAH-1 (setting [2]) was over 10000 nM in each case.
Take `CC(=O)Nc1cccc(-c2cc(NCC(O)c3ccccc3)ncn2)c1` (stereo not shown) [CE2, N-{3-[6-(2-Hydroxy-2-phenyl-ethylamino)-pyrimidin-4-yl]-phenyl}-acetamide, reference compound]: the IC50 on FAAH (setting [1]) and at Rat FAAH-1 (setting [2]) was over 10000 nM in each case.
As to `OCCNc1nc(NC[C@H](O)c2ccccc2)cc(-c2ccc(C(F)(F)F)c(Cl)c2)n1` [Example 160, (1R)-2-({6-[3-Chloro-4-(trifluoromethyl)phenyl]-2-[(2-hydroxyethyl)amino]pyrimidin-4-yl}amino)-1-phenylethanol trifluoroacetic acid salt], the figures for the IC50 on FAAH and against Rat FAAH-1 were 150 nM and 290 nM, respectively.
Taken in the same sequence, the figures for `OC(CNc1cc(-c2ccc(C(F)(F)F)c(Cl)c2)ncn1)c1ccc(-c2cccs2)cc1` (stereo not shown) [Example 194, 2-({6-[3-Chloro-4-(trifluoromethyl)phenyl]pyrimidin-4-yl}amino)-1-(4-thiophen-2-ylphenyl)ethanol] were 11 nM and 210 nM.
For `Cc1noc2cc(-c3cc(NC[C@H](O)c4ccccc4)ncn3)ccc12` [Example 165, (1R)-2-{[6-(3-Methyl-1,2-benzisoxazol-6-yl)pyrimidin-4-yl]amino}-1-phenylethanol], the results for the IC50 against FAAH and at Rat FAAH-1 were 4 nM and 19 nM, respectively.
On to `Cc1ccc2sc(-c3cc(NC[C@H](O)c4ccccc4)ncn3)cc2c1` [Example 56, (1R)-2-{[6-(5-Methyl-1-benzothiophen-2-yl)pyrimidin-4-yl]amino}-1-phenylethanol], for which the IC50 at FAAH is 2 nM; against Rat FAAH-1, 40 nM.
Regarding `OC(CNc1cc(-c2ccc(C(F)(F)F)c(Cl)c2)ncn1)c1ccsc1` (stereo not shown) [Example 168, 2-({6-[3-Chloro-4-(trifluoromethyl)phenyl]pyrimidin-4-yl}amino)-1-thiophen-3-ylethanol], the IC50 on FAAH was 66 nM; on Rat FAAH-1, 42 nM.
For `Cc1n[nH]c2cc(-c3cc(NC[C@H](O)c4ccccc4)ncn3)ccc12` [Example 140, (1R)-2-{[6-(3-Methyl-1H-indazol-6-yl)pyrimidin-4-yl]amino}-1-phenylethanol trifluoroacetic acid salt], the values for the IC50 against FAAH and on Rat FAAH-1 were 127 nM and 265 nM, respectively.
`CC(=O)Nc1cccc(-c2cc(NCC(O)c3ccccc3)ncn2)c1` (stereo not shown) [Example 242, N-{3-[6-(2-Hydroxy-2-phenyl-ethylamino)-pyrimidin-4-yl]-phenyl}-acetamide]: the IC50 against FAAH and against Rat FAAH-1 was over 10000 nM in each case.
Regarding `O[C@@H](CNc1cc(-c2ccc(N3CCOCC3)nc2)ncn1)c1ccccc1` [Example 70, (1R)-2-{[6-(6-Morpholin-4-ylpyridin-3-yl)pyrimidin-4-yl]amino}-1-Phenylethanol], the IC50 on FAAH was 800 nM; at Rat FAAH-1 it was over 10000 nM.
As for `COc1ccc(-c2cc(NC[C@H](O)c3ccccc3)ncn2)cn1` [Example 63, (1R)-2-{[6-(6-Methoxypyridin-3-yl)pyrimidin-4-yl]amino}-1-phenylethanol], the results for the IC50 against FAAH and on Rat FAAH-1 were 450 nM and 2000 nM, respectively.
In the same order, the values of `OC(CNc1cc(-c2c(C(F)(F)F)cccc2C(F)(F)F)ncn1)c1ccccc1` (stereo not shown) [CE1, 2-[6-(2,6-Bis-trifluoromethyl-phenyl)-pyrimidin-4-ylamino]-1-phenyl-ethanol, reference compound] are over 10000 nM and over 10000 nM.
Taken in the same sequence, the figures for `OC(CNc1cc(-c2ccc(C(F)(F)F)c(Cl)c2)ncn1)c1ccc(F)c(Cl)c1` (stereo not shown) [Example 134, 1-(3-Chloro-4-fluorophenyl)-2-({6-[3-chloro-4-(trifluoromethyl)phenyl]pyrimidin-4-yl}amino)ethanol trifluoroacetic acid salt] were 27 nM and 19 nM.
Taken in the same sequence, the figures for `CC(=O)c1ccc(-c2cc(NCC(O)c3ccccc3)ncn2)s1` (stereo not shown) [Example 236, 1-{5-[6-(2-Hydroxy-2-phenyl-ethylamino)-pyrimidin-4-yl]-thiophen-2-yl}-ethanone] were 700 nM and 4000 nM.
`CN(C)S(=O)(=O)c1ccc(-c2cc(NC[C@H](O)c3ccccc3)ncn2)cc1` [Example 76, 4-(6-{[(2R)-2-Hydroxy-2-phenylethyl]amino}pyrimidin-4-yl)-N,N-dimethylbenzenesulfonamide]: the IC50 on FAAH amounted to 14 nM; at Rat FAAH-1, 126 nM.
Regarding `O[C@@H](CNc1cc(-c2ccc(OC(F)(F)F)c(Cl)c2)ncn1)c1ccc(F)cc1` [Example 175, (1R)-2-({6-[3-Chloro-4-(trifluoromethoxy)phenyl]pyrimidin-4-yl}amino)-1-(4-fluorophenyl)ethanol trifluoroacetic acid salt], the half-maximal inhibitory concentration (IC50) came to 2 nM at FAAH and 3 nM against Rat FAAH-1.
Taken in the same sequence, the figures for `O[C@@H](CNc1cc(-c2ccc(C(F)(F)F)cc2C(F)(F)F)ncn1)c1ccccc1` [Example 152, (1R)-2-({6-[2,4-Bis(trifluoromethyl)phenyl]pyrimidin-4-yl}amino)-1-phenylethanol trifluoroacetic acid salt] were 4000 nM and over 10000 nM.
In the same order, the values of `NS(=O)(=O)c1ccc(-c2cc(NC[C@H](O)c3ccccc3)ncn2)cc1` [Example 81, 4-(6-{[(2R)-2-Hydroxy-2-phenylethyl]amino}pyrimidin-4-yl)benzenesulfonamide] are 110 nM and 492 nM.
Taken in the same sequence, the figures for `COc1ccccc1C(O)CNc1cc(-c2ccc(OC(F)(F)F)cc2)ncn1` (stereo not shown) [Example 118, 1-[2-(Methyloxy)phenyl]-2-[(6-{4-[(trifluoromethyl)oxy]phenyl}-pyrimidin-4-yl)amino]ethanol] were 93 nM and over 10000 nM.
Regarding `O[C@@H](CNc1cc(-c2ccc3c(c2)OC(F)(F)O3)ncn1)c1ccccc1` [Example 183, (1R)-2-{[6-(2,2-Difluoro-1,3-benzodioxol-5-yl)pyrimidin-4-yl]amino}-1-phenylethanol], the figures for the half-inhibitory concentration (IC50) against FAAH and on Rat FAAH-1 were 36 nM and 89 nM, respectively.
